Test results taken from patent publication US20240208912A1 (Mirati Therapeutics, Inc., priority 2021, published 2024).
Read-outs that look alike come from different tables or passages of the source.

Molecular target: T1, PRMT5/MEP50 complex (Homo sapiens, UniProt O14744)
T1 construct: purchased Reaction Biology Corporation
Experiment: PRMT5:MEP50 HotSpot Assay (full-length histone H2A substrate, plus and minus MTA)
Type: biochemical
Method: The PRMT5 inhibitory activity of compounds of the present invention was determined using either a PRMT5:MEP50 FlashPlate Assay (Reaction Biology Corporation) or a PRMT5:MEP50 HotSpot Assay (Reaction Biology Corporation).
The assay uses recombinant full-length hi stone H2A as the PRMT5 substrate. […] The reaction was stopped and transferred to filter paper for detection. The amount of tritiated H2A in each sample was determined using a scintillation counter.

[1] = IC50 + 2 μM MTA, in the presence of 2 μM MTA

T1 sequence (O14744 2-637 limits assumed): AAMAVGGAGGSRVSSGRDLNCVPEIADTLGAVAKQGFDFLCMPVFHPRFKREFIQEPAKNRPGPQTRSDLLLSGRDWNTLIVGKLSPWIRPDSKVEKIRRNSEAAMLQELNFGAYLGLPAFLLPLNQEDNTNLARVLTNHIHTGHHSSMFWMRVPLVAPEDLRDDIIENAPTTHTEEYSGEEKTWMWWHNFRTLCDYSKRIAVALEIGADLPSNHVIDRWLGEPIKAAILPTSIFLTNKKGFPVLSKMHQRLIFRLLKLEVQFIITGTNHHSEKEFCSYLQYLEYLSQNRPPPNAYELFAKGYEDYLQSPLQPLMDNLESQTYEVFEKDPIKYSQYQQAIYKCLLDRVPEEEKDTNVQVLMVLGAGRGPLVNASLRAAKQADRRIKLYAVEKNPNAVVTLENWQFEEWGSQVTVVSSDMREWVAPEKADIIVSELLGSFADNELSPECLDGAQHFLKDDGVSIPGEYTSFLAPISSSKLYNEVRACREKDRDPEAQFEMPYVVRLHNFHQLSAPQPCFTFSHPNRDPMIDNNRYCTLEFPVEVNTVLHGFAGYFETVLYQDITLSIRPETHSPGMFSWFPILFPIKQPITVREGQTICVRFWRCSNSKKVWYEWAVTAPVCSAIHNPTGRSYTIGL
T1 sequence (Q9BQA1 2-342 partner limits assumed): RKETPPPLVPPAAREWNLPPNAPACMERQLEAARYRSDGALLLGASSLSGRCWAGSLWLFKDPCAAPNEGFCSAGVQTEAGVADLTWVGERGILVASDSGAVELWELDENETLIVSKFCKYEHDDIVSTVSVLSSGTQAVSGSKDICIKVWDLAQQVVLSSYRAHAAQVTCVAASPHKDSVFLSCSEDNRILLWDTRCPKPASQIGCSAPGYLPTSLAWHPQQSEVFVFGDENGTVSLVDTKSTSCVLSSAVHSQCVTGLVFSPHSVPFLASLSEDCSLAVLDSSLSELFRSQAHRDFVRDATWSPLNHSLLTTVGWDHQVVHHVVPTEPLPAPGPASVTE

IC50 [1] [nM] | IC50 (read-out: IC50 + 2 μM MTA, in the presence of 2 μM MTA) [nM] | SMILES
8720 |  | Cn1ncc(-c2ccc3c(=O)[nH]nc(CN)c3c2)c1-c1c(C#N)cc2[nH]cnc2c1Cl (atropisomer, axis not shown; (M)) [Example 16-115, (M)-5-(4-(4-(aminomethyl)-1-oxo-1,2-dihydrophthalazin-6-yl)-1-methyl-1H-pyrazol-5-yl)-4-chloro-1H-benzo[d]imidazole-6-carbonitrile]
251 |  | Cn1ncc(-c2ccc3c(=O)[nH]nc(CN)c3c2)c1-c1c(Cl)ccc(OC2CC2)c1C#N (atropisomer, axis not shown; (M)) [Example 16-132, (M)-2-(4-(4-(aminomethyl)-1-oxo-1,2-dihydrophthalazin-6-yl)-1-methyl-1H-pyrazol-5-yl)-3-chloro-6-cyclopropoxybenzonitrile]
955 |  | Cn1ncc(-c2ccc3c(=O)[nH]nc(CN)c3c2)c1-c1c(F)cc(S(F)(F)(F)(F)F)cc1C#N (atropisomer, axis not shown; (M)) [Example 16-134, (M)-2-(4-(4-(aminomethyl)-1-oxo-1,2-dihydrophthalazin-6-yl)-1-methyl-1H-pyrazol-5-yl)-3-fluoro-5-(pentafluoro-16-sulfanyl)benzonitrile]
393 |  | Cn1ncc(-c2ccc3c(=O)[nH]nc(CN)c3c2)c1-c1c(F)cnc(OC2CC2)c1C#N (atropisomer, axis not shown; (M)) [Example 16-136, (M)-4-(4-(4-(aminomethyl)-1-oxo-1,2-dihydrophthalazin-6-yl)-1-methyl-1H-pyrazol-5-yl)-2-cyclopropoxy-5-fluoronicotinonitrile]
 | > 10000 | Cn1ncc(-c2ccc3c(=O)[nH]nc(CN)c3c2)c1-c1c(C2COC2)ccc2c1COC2 (atropisomer, axis not shown; (M)) [Example 16-138, (M)-4-(aminomethyl)-6-(1-methyl-5-(5-(oxetan-3-yl)-1,3-dihydroisobenzofuran-4-yl)-1H-pyrazol-4-yl)phthalazin-1(2H)-one]
543 |  | Cc1cnc2cc(F)c(-c3c(-c4ccc5c(=O)[nH]nc(CN)c5c4)cnn3C)c(C#N)c2c1 (atropisomer, axis not shown; (P)) [Example 16-36, (P)-6-[4-[4-(aminomethyl)-1-oxo-2H-phthalazin-6-yl]-2-methyl-pyrazol-3-yl]-7-fluoro-3-methyl-quinoline-5-carbonitrile]
477 |  | Cn1ncc(-c2ccc3c(=O)[nH]nc(CN)c3c2)c1-c1c(C#N)cc2[nH]cnc2c1Cl (atropisomer, axis not shown; (P)) [Example 16-116, (P)-5-(4-(4-(aminomethyl)-1-oxo-1,2-dihydrophthalazin-6-yl)-1-methyl-1H-pyrazol-5-yl)-4-chloro-1H-benzo[d]imidazole-6-carbonitrile]
347 |  | Cn1ncc(-c2ccc3c(=O)[nH]nc(CN)c3c2)c1-c1c(Cl)ccc(OC2CC2)c1C#N (atropisomer, axis not shown; (P)) [Example 16-131, (P)-2-(4-(4-(aminomethyl)-1-oxo-1,2-dihydrophthalazin-6-yl)-1-methyl-1H-pyrazol-5-yl)-3-chloro-6-cyclopropoxybenzonitrile]
1080 |  | Cn1ncc(-c2ccc3c(=O)[nH]nc(CN)c3c2)c1-c1c(F)cc(S(F)(F)(F)(F)F)cc1C#N (atropisomer, axis not shown; (P)) [Example 16-133, (P)-2-(4-(4-(aminomethyl)-1-oxo-1,2-dihydrophthalazin-6-yl)-1-methyl-1H-pyrazol-5-yl)-3-fluoro-5-(pentafluoro-16-sulfanyl)benzonitrile]
758 |  | Cn1ncc(-c2ccc3c(=O)[nH]nc(CN)c3c2)c1-c1c(F)cnc(OC2CC2)c1C#N (atropisomer, axis not shown; (P)) [Example 16-135, (P)-4-(4-(4-(aminomethyl)-1-oxo-1,2-dihydrophthalazin-6-yl)-1-methyl-1H-pyrazol-5-yl)-2-cyclopropoxy-5-fluoronicotinonitrile]
> 10000 |  | Cn1ncc(-c2ccc3c(=O)[nH]nc(CN)c3c2)c1-c1c(C2COC2)ccc2c1COC2 (atropisomer, axis not shown; (P)) [Example 16-137, (P)-4-(aminomethyl)-6-(1-methyl-5-(5-(oxetan-3-yl)-1,3-dihydroisobenzofuran-4-yl)-1H-pyrazol-4-yl)phthalazin-1(2H)-one]
2380 |  | Cc1cc2ccccc2c(C#N)c1-c1c(-c2ccc3c(=O)[nH]nc(CN)c3c2)cnn1C (single isomer, unassigned) [Example 12-15A]
356 |  | Cc1cc2ccccc2c(C#N)c1-c1c(-c2ccc3c(=O)[nH]nc(CN)c3c2)cnn1C (single isomer, unassigned) [Example 12-15B]
634 |  | Cc1c(F)c(-c2c(-c3cc(C)c4c(=O)[nH]nc(CN)c4c3)cnn2C)c(C#N)c2cc(Cl)cnc12 (single isomer, unassigned) [Example 16-107, (P)-6-(4-(4-(aminomethyl)-8-methyl-1-oxo-1,2-dihydrophthalazin-6-yl)-1-methyl-1H-pyrazol-5-yl)-3-chloro-7-fluoro-8-methylquinoline-5-carbonitrile]
5 |  | Cc1c(F)c(-c2c(-c3cc(C)c4c(=O)[nH]nc(CN)c4c3)cnn2C)c(C#N)c2cc(Cl)cnc12 (single isomer, unassigned) [Example 16-108, (M)-6-(4-(4-(aminomethyl)-8-methyl-1-oxo-1,2-dihydrophthalazin-6-yl)-1-methyl-1H-pyrazol-5-yl)-3-chloro-7-fluoro-8-methylquinoline-5-carbonitrile]
1370 |  | Cc1c(F)c(-c2c(-c3cc(Cl)c4c(=O)[nH]nc(CN)c4c3)cnn2C)c(C#N)c2cc(Cl)cnc12 (single isomer, unassigned) [Example 16-109, (P)-6-(4-(4-(aminomethyl)-8-chloro-1-oxo-1,2-dihydrophthalazin-6-yl)-1-methyl-1H-pyrazol-5-yl)-3-chloro-7-fluoro-8-methylquinoline-5-carbonitrile]
51 |  | CCOc1cc(-c2cnn(C)c2-c2c(F)c(C)c3ncc(Cl)cc3c2C#N)cc2c(CN)n[nH]c(=O)c12 (single isomer, unassigned) [Example 16-112, (M)-6-(4-(4-(aminomethyl)-8-ethoxy-1-oxo-1,2-dihydrophthalazin-6-yl)-1-methyl-1H-pyrazol-5-yl)-3-chloro-7-fluoro-8-methylquinoline-5-carbonitrile]
> 10000 |  | Cc1c(Cl)cc(OC2CC2)c(C#N)c1-c1c(-c2ccc3c(=O)[nH]nc(CN)c3c2)cnn1C (single isomer, unassigned) [Example 16-121, (M)-2-(4-(4-(aminomethyl)-1-oxo-1,2-dihydrophthalazin-6-yl)-1-methyl-1H-pyrazol-5-yl)-4-chloro-6-cyclopropoxy-3-methylbenzonitrile]
112 |  | Cc1c(Cl)cc(OC2CC2)c(C#N)c1-c1c(-c2ccc3c(=O)[nH]nc(CN)c3c2)cnn1C (single isomer, unassigned) [Example 16-122, (P)-2-(4-(4-(aminomethyl)-1-oxo-1,2-dihydrophthalazin-6-yl)-1-methyl-1H-pyrazol-5-yl)-4-chloro-6-cyclopropoxy-3-methylbenzonitrile]
4000 |  | Cn1ncc(-c2ccc3c(=O)[nH]nc(CN)c3c2)c1-c1c(Cl)c(Cl)cc(OC2CC2)c1C#N (single isomer, unassigned) [Example 16-123, (P)-2-(4-(4-(aminomethyl)-1-oxo-1,2-dihydrophthalazin-6-yl)-1-methyl-1H-pyrazol-5-yl)-3,4-dichloro-6-cyclopropoxybenzonitrile]
70 |  | Cn1ncc(-c2ccc3c(=O)[nH]nc(CN)c3c2)c1-c1c(Cl)c(Cl)cc(OC2CC2)c1C#N (single isomer, unassigned) [Example 16-124, (M)-2-(4-(4-(aminomethyl)-1-oxo-1,2-dihydrophthalazin-6-yl)-1-methyl-1H-pyrazol-5-yl)-3,4-dichloro-6-cyclopropoxybenzonitrile]
2950 |  | Cn1ncc(-c2ccc3c(=O)[nH]nc(CN)c3c2)c1-c1c(F)c(Cl)cc(CC2CC2)c1C#N (single isomer, unassigned) [Example 16-125, (P)-2-(4-(4-(aminomethyl)-1-oxo-1,2-dihydrophthalazin-6-yl)-1-methyl-1H-pyrazol-5-yl)-4-chloro-6-(cyclopropylmethyl)-3-fluorobenzonitrile]
29 |  | Cn1ncc(-c2ccc3c(=O)[nH]nc(CN)c3c2)c1-c1c(F)c(Cl)cc(CC2CC2)c1C#N (single isomer, unassigned) [Example 16-126, (M)-2-(4-(4-(aminomethyl)-1-oxo-1,2-dihydrophthalazin-6-yl)-1-methyl-1H-pyrazol-5-yl)-4-chloro-6-(cyclopropylmethyl)-3-fluorobenzonitrile]
347 |  | Cn1ncc(-c2ccc3c(=O)[nH]nc(CN)c3c2)c1-c1c(Cl)cc2ccccc2c1C#N (single isomer, unassigned) [Example 16-127, (P)-2-(4-(4-(aminomethyl)-1-oxo-1,2-dihydrophthalazin-6-yl)-1-methyl-1H-pyrazol-5-yl)-3-chloro-1-naphthonitrile]
65 |  | Cn1ncc(-c2ccc3c(=O)[nH]nc(CN)c3c2)c1-c1c(Cl)cc2ccccc2c1C#N (single isomer, unassigned) [Example 16-128, (M)-2-(4-(4-(aminomethyl)-1-oxo-1,2-dihydrophthalazin-6-yl)-1-methyl-1H-pyrazol-5-yl)-3-chloro-1-naphthonitrile]
5250 |  | Cn1ncc(-c2ccc3c(=O)[nH]nc(CN)c3c2)c1-c1c(C(F)F)cc2ccccc2c1C#N (single isomer, unassigned) [Example 16-129, (P)-2-(4-(4-(aminomethyl)-1-oxo-1,2-dihydrophthalazin-6-yl)-1-methyl-1H-pyrazol-5-yl)-3-(difluoromethyl)-1-naphthonitrile]
